Results published in patent US10947254B2, “Methods for treating ulcerative colitis using 3-((1R,3s,5S)-3-((7-((5-methyl-1H-pyrazol-3-yl)amino)-1,6-naphthyridin-5-yl)amino)-8-azabicyclo[3.2.1]octan-8-yl)propanenitrile” (priority 2015, dated 2021).

Tests used:
[1] = tested on: IL-4 induced STAT6 phosphorylation in THP-1 human monocytic cells; settings: THP-1 cells
[2] = tested on: IL-13 induced STAT6 phosphorylation in BEAS-2B human lung epithelial cells; settings: BEAS-2B cells

SMILES	THP-1 IL4 pIC50 [1]	BEAS2B pIC50 [2]
Cc1cc(Nc2cc3ncccc3c(N[C@@H]3C[C@H]4CC[C@@H](C3)N4CC(C)C#N)n2)n[nH]1 (stereo partly drawn) [Example 1-23]	A (A represents a pEC50 value ≥7.5 (EC50≤32 nM))	A (A represents a pEC50 value ≥7.5 (EC50≤32 nM))
Cc1cc(Nc2cc3ncccc3c(N[C@@H]3C[C@H]4CCC[C@@H](C3)N4CCC#N)n2)n[nH]1 [Example 1-31]	A (A represents a pEC50 value ≥7.5 (EC50≤32 nM))	A (A represents a pEC50 value ≥7.5 (EC50≤32 nM))
Cc1cc(Nc2cc3ncccc3c(N[C@@H]3C[C@H]4CCC[C@@H](C3)N4CCF)n2)n[nH]1 [Example 1-39]	A (A represents a pEC50 value ≥7.5 (EC50≤32 nM))	A (A represents a pEC50 value ≥7.5 (EC50≤32 nM))
Cc1cc(Nc2cc3ncccc3c(N[C@@H]3C[C@H]4CCC[C@@H](C3)N4CCCF)n2)n[nH]1 [Example 1-40]	A (A represents a pEC50 value ≥7.5 (EC50≤32 nM))	A (A represents a pEC50 value ≥7.5 (EC50≤32 nM))
Cc1cc(Nc2cc3ncccc3c(N[C@@H]3C[C@H]4CCC[C@@H](C3)N4CC(C)C)n2)n[nH]1 [Example 1-43]	A (A represents a pEC50 value ≥7.5 (EC50≤32 nM))	A (A represents a pEC50 value ≥7.5 (EC50≤32 nM))
Cc1cc(Nc2cc3ncccc3c(N[C@@H]3C[C@H]4CCC[C@@H](C3)N4CCC(F)(F)F)n2)n[nH]1 [Example 1-44]	A (A represents a pEC50 value ≥7.5 (EC50≤32 nM))	A (A represents a pEC50 value ≥7.5 (EC50≤32 nM))
Cc1cc(Nc2cc3ncccc3c(N[C@@H]3C[C@H]4CCC[C@@H](C3)N4Cc3cccnc3)n2)n[nH]1 [Example 1-47]	A (A represents a pEC50 value ≥7.5 (EC50≤32 nM))	A (A represents a pEC50 value ≥7.5 (EC50≤32 nM))
Cc1cc(Nc2cc3ncccc3c(N[C@@H]3C[C@H]4CCC[C@@H](C3)N4Cc3ccncc3C#N)n2)n[nH]1 [Example 1-56]	A (A represents a pEC50 value ≥7.5 (EC50≤32 nM))	A (A represents a pEC50 value ≥7.5 (EC50≤32 nM))
Cc1cc(Nc2cc3ncccc3c(N[C@@H]3C[C@H]4CCC[C@@H](C3)N4C(=O)c3ccccc3)n2)n[nH]1 [Example 2-25]	A (A represents a pEC50 value ≥7.5 (EC50≤32 nM))	A (A represents a pEC50 value ≥7.5 (EC50≤32 nM))
CCC1(S(=O)(=O)N2[C@@H]3CCC[C@H]2C[C@H](Nc2nc(Nc4cc(C)[nH]n4)cc4ncccc24)C3)CC1 [Example 4-20]	A (A represents a pEC50 value ≥7.5 (EC50≤32 nM))	A (A represents a pEC50 value ≥7.5 (EC50≤32 nM))
Cc1cc(Nc2cc3ncccc3c(N[C@@H]3C[C@H]4CCC[C@@H](C3)N4S(=O)(=O)N3CCCC3)n2)n[nH]1 [Example 4-27]	A (A represents a pEC50 value ≥7.5 (EC50≤32 nM))	A (A represents a pEC50 value ≥7.5 (EC50≤32 nM))
Cc1cc(Nc2cc3ncccc3c(N[C@@H]3C[C@H]4CCC[C@@H](C3)N4S(=O)(=O)N3CCC3)n2)n[nH]1 [Example 4-29]	A (A represents a pEC50 value ≥7.5 (EC50≤32 nM))	A (A represents a pEC50 value ≥7.5 (EC50≤32 nM))
COc1ccc2c(N[C@@H]3C[C@H]4CC[C@@H](C3)N4CCCC#N)nc(Nc3cc(C)[nH]n3)cc2n1 [Example 5-2]	–	A (A represents a pEC50 value ≥7.5 (EC50≤32 nM))
COc1ccc2c(N[C@@H]3C[C@H]4CC[C@@H](C3)N4CC(C)C)nc(Nc3cc(C)[nH]n3)cc2n1 [Example 5-4]	A (A represents a pEC50 value ≥7.5 (EC50≤32 nM))	A (A represents a pEC50 value ≥7.5 (EC50≤32 nM))
C=CCOC(=O)N1[C@@H]2CC[C@H]1C[C@H](Nc1nc(Nc3cc(C)[nH]n3)cc3nc(OC)ccc13)C2 [Example 5-7]	–	A (A represents a pEC50 value ≥7.5 (EC50≤32 nM))
COc1ccc2c(N[C@@H]3C[C@H]4CC[C@@H](C3)N4CCC#N)nc(Nc3cc(C)[nH]n3)cc2n1 [Example 5-8]	A (A represents a pEC50 value ≥7.5 (EC50≤32 nM))	A (A represents a pEC50 value ≥7.5 (EC50≤32 nM))
COc1ccc2c(N[C@@H]3C[C@H]4CCC[C@@H](C3)N4CCC#N)nc(Nc3cc(C)[nH]n3)cc2n1 [Example 5-10]	A (A represents a pEC50 value ≥7.5 (EC50≤32 nM))	A (A represents a pEC50 value ≥7.5 (EC50≤32 nM))
C=CCOC(=O)N1[C@@H]2CC[C@H]1C[C@H](Nc1nc(Nc3cc(C)[nH]n3)cc3nc(CN4CCOCC4)ccc13)C2 [Example 5-17]	–	A (A represents a pEC50 value ≥7.5 (EC50≤32 nM))
Cc1cc(Nc2cc3nc(CN4CCOCC4)ccc3c(N[C@@H]3C[C@H]4CCC[C@@H](C3)N4S(C)(=O)=O)n2)n[nH]1 [Example 5-22]	–	A (A represents a pEC50 value ≥7.5 (EC50≤32 nM))
Cc1cc(Nc2cc3nc(CN4CCOCC4)ccc3c(N[C@@H]3C[C@H]4CCC[C@@H](C3)N4S(=O)(=O)c3cccnc3)n2)n[nH]1 [Example 5-27]	A (A represents a pEC50 value ≥7.5 (EC50≤32 nM))	A (A represents a pEC50 value ≥7.5 (EC50≤32 nM))
Cc1cc(Nc2cc3nc(CN4CCOCC4)ccc3c(N[C@@H]3C[C@H]4CCC[C@@H](C3)N4S(=O)(=O)c3cncc(F)c3)n2)n[nH]1 [Example 5-30]	A (A represents a pEC50 value ≥7.5 (EC50≤32 nM))	A (A represents a pEC50 value ≥7.5 (EC50≤32 nM))
Cc1cnc2cc(Nc3cc(C)[nH]n3)nc(N[C@@H]3C[C@H]4CC[C@@H](C3)N4CCC#N)c2c1 [Example 6-1]	A (A represents a pEC50 value ≥7.5 (EC50≤32 nM))	A (A represents a pEC50 value ≥7.5 (EC50≤32 nM))
COc1cnc2cc(Nc3cc(C)[nH]n3)nc(N[C@@H]3C[C@H]4CC[C@@H](C3)N4C(=O)OCC(C)C)c2c1 [Example 6-25]	–	A (A represents a pEC50 value ≥7.5 (EC50≤32 nM))
Cc1cc(Nc2cc3ncc(S(C)(=O)=O)cc3c(N[C@@H]3C[C@H]4CC[C@@H](C3)N4Cc3ccncc3)n2)n[nH]1 [Example 6-59]	–	C (C represents a pEC50 value <6.7 (EC50>200 nM))
Cc1cc(Nc2nc(N[C@@H]3C[C@H]4CC[C@@H](C3)N4S(=O)(=O)c3cncc(F)c3)c3cccnc3c2F)n[nH]1 [Example 8-5]	–	A (A represents a pEC50 value ≥7.5 (EC50≤32 nM))
Cc1cc(Nc2nc(N[C@@H]3C[C@H]4CCC[C@@H](C3)N4S(=O)(=O)c3ccccc3)c3cccnc3c2F)n[nH]1 [Example 8-11]	–	A (A represents a pEC50 value ≥7.5 (EC50≤32 nM))
Cc1cc(Nc2nc(N[C@@H]3C[C@H]4CCC[C@@H](C3)N4S(=O)(=O)c3cncc(F)c3)c3cccnc3c2F)n[nH]1 [Example 8-13]	–	A (A represents a pEC50 value ≥7.5 (EC50≤32 nM))
